# Test: Fluorescence spectrum tests of L012 at different pH and H2O2 concentration
# Type: physicochemical
# Method: The fluorescence spectrum tests of L012 at different pH and H2O2 concentration. the quantum yield of the L012 solution at different Ph was investigated. 1 mL L012 solution (0.5 mg/mL) with pH 7.4, 8.5, and 10.0 was mixed with H2O2, where the final concentration of H2O2 was 250 μM. The fluorescence spectrum was recorded via Fluorolog3 Fluorometer. In addition, we also investigated the quantum yield of the L012 solution with different H2O2 concentrations at pH 7.4. 1 mL L012 solution (0.5 mg/mL) with different H2O2 concentrations (50, 250, and 500 μM) at pH 7.4 was prepared at first, and the fluorescence spectrum was also recorded via Fluorolog3 Fluorometer.
structure (smiles),measurement,setting,value
"Nc1c(-c2ccccc2)nc(Cl)c2c([O-])n[nH]c(=O)c12.[Na+] [L012, L012 sodium salt]",improvement of fluorescence intensity,H2O2 concentration increased from 50 to 500 μM,around four
same,increase of fluorescence intensity,pH changed from 7.4 to 10,around 30%

# Reference: patent US20260000766A1, “ULTRASOUND OPTOGENETIC COMPOSITIONS AND METHODS” (BOARD OF REGENTS, THE UNIVERSITY OF TEXAS SYSTEM, priority 2022, published 2026)
